Measured values reported in US20100022483A1, “Substituted Tetracycline Compounds” (Paratek Pharmaceuticals, Inc., priority 2008, published 2010).
Converted amounts (≈) assume the structure as drawn. Where two headings read alike, the source gives them in different places.

Tests used:
[1] = Mammalian cytotoxicity assay (resazurin), COS-1 cells; assay type: cell-based; settings: African green monkey, read-out: Cytotox. COS-1
Description: (§1) COS-1 and CHO-K1 cell suspensions were prepared, seeded into 96-well tissue culture treated black-walled microtiter plates (density determined by cell line), and incubated overnight at 37° C., in 5% CO2 and approximately 95% humidity. The following day, serial dilutions of compound were prepared under sterile conditions and transferred to cell plates. Cell/Compound plates were incubated under the above conditions for 24 hours. Following the incubation period, media/compound was aspirated and 50 μl of resazurin (0.042 mg/ml in PBS w/Ca and Mg) is added. The plates were then incubated under the above conditions for 2 hours and then placed in the dark at room temperature for an additional 30 minutes. Fluorescence measurements were taken (excitation 535 nm, emission 590 nm). The IC50 (concentration of compound causing 50% growth inhibition) was then calculated. Table 3 includes IC50 data for several substituted tetracycline compounds.

gram negative bacteria = test: In vitro anti-bacterial activity assay (broth dilution MIC), gram negative bacteria; assay type: cell-based, E. coli
Source text: (§2) Bacterial infections may be caused by a wide variety of gram positive and gram negative bacteria. Some of the compounds of the invention are useful as antibiotics against organisms which are resistant and/or sensitive to other tetracycline compounds. The antibiotic activity of the tetracycline compounds of the invention may by using the in vitro standard broth dilution method described in Waitz, J. A., CLSI, Document M7-A2, vol. 10, no. 8, pp. 13-20, 2nd edition, Villanova, Pa. (1990).
(§3) The following assay was used to determine the efficacy of the tetracycline compounds against gram positive and gram negative bacteria. 2 mg of each compound was dissolved in 100 μl of DMSO. […] The tetracycline compound solutions were diluted to 50 μL volumes, with a test compound concentration of 0.098 μg/ml. Optical density (OD) determinations were made from fresh log-phase broth cultures of the test strains. Dilutions were made to achieve a final cell density of […] CFU/ml. At OD=1, cell densities for different genera were approximately:
(§4) 50 μl of the cell suspensions were added to each well of microtiter plates. The final cell density was approximately 5×10^5 CFU/ml. These plates were incubated at 35° C. in an ambient air incubator for approximately 18 hours. The plates were read with a microplate reader and were visually inspected when necessary. The MIC was defined as the lowest concentration of the tetracycline compound that inhibits growth. Table 3 includes MIC data for several substituted tetracycline compounds.

3T3 fibroblast cells = test: In vitro phototoxicity assay (neutral red; UV light-treated vs dark control plates); assay type: cell-based; settings: for Photo Toxicity UV Tox50: UV light 50 minutes; for Photo Toxicity Dark Tox50: dark control plate
Description: 3T3 fibroblast cells were harvested and plated at a concentration of 1×10^5 cells/mL and the plates were incubated overnight at 37° C., in 5% CO2 and approximately 95% humidity. On the following day the medium was removed from the plates and replaced with Hanks' Balanced Salt Solution (HBSS). Compound dilutions were made in HBSS and added to the plates. For each compound tested, a duplicate plate was prepared that was not exposed to light as a control for compound toxicity. Plates were then incubated in a dark drawer (for controls), or under UV light (meter reading of 1.6-1.8 mW/cm^2) for 50 minutes. Cells were then washed with HBSS, fresh medium was added, and plates were incubated overnight as described above. The following day neutral red was added as an indicator of cell viability. The plates were then incubated for an additional 3 hours. Cells were then washed with HBSS and blotted on absorbent paper to remove excess liquid. A solution of 50% EtOH, 10% glacial acetic acid was added and after 20 minutes incubation the plate's absorbance at 535 nm was read using a Wallac Victor 5 spectrophotometer. The phototoxicity reflected the difference between the light-treated and control cultures. Table 3 includes phototoxicity (μM) data for several substituted tetracycline compounds.

gram positive bacteria = test: In vitro anti-bacterial activity assay (broth dilution MIC), gram positive bacteria; assay type: cell-based, S. aureus; settings: 18 h
Source text: as §2, §3, §4

in vitro = assay type: cell-based; settings: Chinese hamster, Cytotox. CHO-K1
Description: as §1

[2] = Escherichia coli, 18 h, E. coli D1 209, read-out: Median MIC's G− E. coli D1 209
[3] = Escherichia coli, 18 h, E. coli MG 1655, read-out: Median MIC's G− E. coli MG 1655
[4] = Escherichia coli, ATCC25922, 18 h, E. coli ATCC 25922, read-out: Median MIC's G− E. coli ATCC 25922
[5] = Pseudomonas aeruginosa, 18 h, P. aeruginosa K201 PAO6609, read-out: Median MIC's G− P. aeruginosa K201 PAO6609
[6] = Staphylococcus aureus, S. aureus MRSA5, read-out: Median MIC's G+ S. aureus MRSA5
[7] = Staphylococcus aureus, S. aureus RN450, read-out: Median MIC's G+ S. aureus RN450
[8] = Streptococcus pneumoniae, S. pneumoniae 157E-Strep, read-out: Median MIC's G+ S. pneumoniae 157E-Strep

| Structure (SMILES) | IC50 at 24 h [1] [µM] | MIC (gram negative bacteria; [2]) [µg/mL] | MIC (gram negative bacteria; [3]) [µg/mL] | MIC (gram negative bacteria; [4]) [µg/mL] | MIC (gram negative bacteria; [5]) [µg/mL] | Photo Toxicity UV Tox50 (3T3 fibroblast cells) | Photo Toxicity Dark Tox50 (3T3 fibroblast cells) | MIC (gram positive bacteria; [6]) [µg/mL] | MIC (gram positive bacteria; [7]) [µg/mL] | MIC (gram positive bacteria; [8]) [µg/mL] | IC50 at 24 h (in vitro) [µM] |
| --- | --- | --- | --- | --- | --- | --- | --- | --- | --- | --- | --- |
| CCN(CC)CCCC(C)NC(=O)c1ccc(O)c2c1C[C@H]1C[C@H]3[C@H](N(C)C)C(O)=C(C(N)=O)C(=O)[C@@]3(O)C(O)=C1C2=O (stereo partly shown) [AI] | > 109 | 64 (≈ 107 µM) | 64 (≈ 107 µM) | 64 (≈ 107 µM) | 64 (≈ 107 µM) | >108.86 µM | >108.86 µM | 64 (≈ 107 µM) | 64 (≈ 107 µM) | 64 (≈ 107 µM) | > 109 |
| CC(C)N(C)CC(=O)c1ccc(O)c2c1C[C@H]1C[C@H]3[C@H](N(C)C)C(O)=C(C(N)=O)C(=O)[C@@]3(O)C(O)=C1C2=O [AJ] | > 150 | 1 (≈ 1.9 µM) | 0.25 (≈ 0.474 µM) | 0.25 (≈ 0.474 µM) | 32 (≈ 60.7 µM) | >149.87 µM | >149.87 µM | 0.5 (≈ 0.948 µM) | 0.06 (≈ 0.114 µM) | 0.06 (≈ 0.114 µM) | > 150 |
| COC(=O)C1CCN(Cc2ccc(O)c3c2C[C@H]2C[C@H]4[C@H](N(C)C)C(O)=C(C(N)=O)C(=O)[C@@]4(O)C(O)=C2C3=O)CC1 [AK] | > 140 | 4 (≈ 7.02 µM) | 0.5 (≈ 0.878 µM) | 0.25 (≈ 0.439 µM) | 64 (≈ 112 µM) | >140.07 µM | >140.07 µM | 2 (≈ 3.51 µM) | 0.06 (≈ 0.105 µM) | 0.06 (≈ 0.105 µM) | > 140 |
| CN(C)CC(=O)N1CC=C(c2ccc(O)c3c2C[C@H]2C[C@H]4[C@H](N(C)C)C(O)=C(C(N)=O)C(=O)[C@@]4(O)C(O)=C2C3=O)CC1 [AL] | > 145 | 64 (≈ 110 µM) | 16 (≈ 27.6 µM) | 16 (≈ 27.6 µM) | 64 (≈ 110 µM) | >145.35 µM | >145.35 µM | 32 (≈ 55.1 µM) | 0.5 (≈ 0.861 µM) | 0.5 (≈ 0.861 µM) | > 145 |
| CC(=O)Nc1cccc(-c2ccc(O)c3c2C[C@H]2C[C@H]4[C@H](N(C)C)C(O)=C(C(N)=O)C(=O)[C@@]4(O)C(O)=C2C3=O)c1 [AO] | > 16.3 | 64 (≈ 117 µM) | 32 (≈ 58.4 µM) | 4 (≈ 7.31 µM) | 64 (≈ 117 µM) | >162.66 µM | >162.66 µM | 4 (≈ 7.31 µM) | 0.06 (≈ 0.11 µM) | 0.06 (≈ 0.11 µM) | > 16.3 |
| COc1ccc(CN(C)C)cc1-c1ccc(O)c2c1C[C@H]1C[C@H]3[C@H](N(C)C)C(O)=C(C(N)=O)C(=O)[C@@]3(O)C(O)=C1C2=O [AT] | > 146 | 1 (≈ 1.73 µM) | 1 (≈ 1.73 µM) | 0.5 (≈ 0.866 µM) | 64 (≈ 111 µM) | >146.03 µM | >146.03 µM | 0.5 (≈ 0.866 µM) | 0.06 (≈ 0.104 µM) | 0.06 (≈ 0.104 µM) | > 146 |
| CN(C)CCC(=O)c1ccc(O)c2c1C[C@H]1C[C@H]3[C@H](N(C)C)C(O)=C(C(N)=O)C(=O)[C@@]3(O)C(O)=C1C2=O [AV] | > 153 | 64 (≈ 125 µM) | 16 (≈ 31.2 µM) | 8 (≈ 15.6 µM) | 64 (≈ 125 µM) | >153.46 µM | >153.46 µM | 0.5 (≈ 0.974 µM) | 0.06 (≈ 0.117 µM) | 0.5 (≈ 0.974 µM) | > 153 |
| CN(C)CCNC(=O)c1cccc(-c2ccc(O)c3c2C[C@H]2C[C@H]4[C@@H](N(C)C)C(O)=C(C(N)=O)C(=O)[C@@]4(O)C(O)=C2C3=O)c1 [A] | > 200 | 64 (≈ 106 µM) | 64 (≈ 106 µM) | 64 (≈ 106 µM) | 64 (≈ 106 µM) | M: >200 uM | M: >200 uM | 64 (≈ 106 µM) | 8 (≈ 13.2 µM) | 4 (≈ 6.62 µM) | > 200 |
| CN1CCN(CC(=O)c2ccc(O)c3c2C[C@H]2C[C@H]4[C@H](N(C)C)C(O)=C(C(N)=O)C(=O)[C@@]4(O)C(O)=C2C3=O)CC1 [BB] | > 136 | 64 (≈ 115 µM) | 8 (≈ 14.4 µM) | 32 (≈ 57.7 µM) | 64 (≈ 115 µM) | >135.54 µM | >135.54 µM | 16 (≈ 28.8 µM) | 2 (≈ 3.61 µM) | 1 (≈ 1.8 µM) | > 136 |
| CN(C)CC(=O)Nc1ccc(-c2ccc(O)c3c2C[C@H]2C[C@H]4[C@H](N(C)C)C(O)=C(C(N)=O)C(=O)[C@@]4(O)C(O)=C2C3=O)cc1 [BC] | > 13.6 | 1 (≈ 1.69 µM) | 2 (≈ 3.39 µM) | 1 (≈ 1.69 µM) | 64 (≈ 108 µM) | >135.63 µM | >135.63 µM | 2 (≈ 3.39 µM) | 0.06 (≈ 0.102 µM) | 0.06 (≈ 0.102 µM) | > 13.6 |
| CN(C)CCc1ccc(O)c2c1C[C@H]1C[C@H]3[C@H](N(C)C)C(O)=C(C(N)=O)C(=O)[C@@]3(O)C(O)=C1C2=O [BD] | > 121 | 64 (≈ 132 µM) | 4 (≈ 8.24 µM) | 4 (≈ 8.24 µM) | 64 (≈ 132 µM) | M: >120.91 uM | M: >120.91 uM | 32 (≈ 65.9 µM) | 0.5 (≈ 1.03 µM) | 0.13 (≈ 0.268 µM) | > 121 |
| COc1ccc(-c2ccc(O)c3c2C[C@H]2C[C@H]4[C@H](N(C)C)C(O)=C(C(N)=O)C(=O)[C@@]4(O)C(O)=C2C3=O)cc1CNCC(N)=O [BE] | > 10.8 | 64 (≈ 106 µM) | 16 (≈ 26.4 µM) | 64 (≈ 106 µM) | 64 (≈ 106 µM) | >107.82 µM | >107.82 µM | 32 (≈ 52.8 µM) | 1 (≈ 1.65 µM) | 0.13 (≈ 0.214 µM) | > 10.8 |
| CN(C)[C@@H]1C(O)=C(C(N)=O)C(=O)[C@@]2(O)C(O)=C3C(=O)c4c(O)ccc(-c5coc(CN6CCCCC6)c5)c4C[C@H]3C[C@@H]12 [BF] | > 42.9 | 0.5 (≈ 0.866 µM) | 1 (≈ 1.73 µM) | 0.25 (≈ 0.433 µM) | 64 (≈ 111 µM) | >138.34 µM | >138.34 µM | 1 (≈ 1.73 µM) | 0.06 (≈ 0.104 µM) | 0.06 (≈ 0.104 µM) | > 42.9 |
| COCCNCc1ccc(-c2ccc(O)c3c2C[C@H]2C[C@H]4[C@H](N(C)C)C(O)=C(C(N)=O)C(=O)[C@@]4(O)C(O)=C2C3=O)cc1 [BG] | > 95.6 | 0.5 (≈ 0.866 µM) | 0.5 (≈ 0.866 µM) | 0.25 (≈ 0.433 µM) | 64 (≈ 111 µM) | >146.03 µM | >146.03 µM | 1 (≈ 1.73 µM) | 0.06 (≈ 0.104 µM) | 0.06 (≈ 0.104 µM) | 45.3 to 125 |
